Source: article PMC5526570, “In vitro and in vivo anti-inflammatory active copper(II)-lawsone complexes” (PLoS ONE, 2017)
“Also recorded” adds a separate entry of the source.

Assays:
[1] = system: PMN infiltration of hind paw tissue; experiment: Ex vivo histological evaluation of hind paw tissue (hematoxylin/eosin); format: in vivo, rat; settings: rats, i.p., tissue after 6 h
Source text: All the animals were sacrificed by cervical dislocation, and immediately after that, the affected hind paws were separated and underwent the process of dehydration and fixation, and were embedded into paraffin blocks by means of standard protocols. The histopathological changes, like infiltration of different skin elements and deeper laying tissues by the polymorphonuclear white blood cells (dominantly neutrophils and lymphocytes) stained by the standard hematoxylin/eosin staining, were evaluated.

NF-κB = NF-κB activity, secreted alkaline phosphatase reporter in THP1-XBlue-MD2-CD14 cells; format: cell-based, human; settings: 1 h pretreatment, 24 h; for decrease of NF-κB activity stimulated by LPS: LPS 1 μg/mL; for decrease of NF-κB activation induced by Pam3CSK4: Pam3CSK4 100 ng/mL; for decrease of NF-κB activity stimulated by TNF-α: TNF-α 10 ng/mL
Protocol: The THP-1 human monocytic leukemia cell line was obtained from the European Collection of Cell Cultures (ECACC, Salisbury, UK) and THP1-XBlue™-MD2-CD14 cells were purchased from Invivogen (San Diego, USA). The cells were cultivated at 37°C in the RPMI 1640 medium supplemented with 2 mM L-glutamine, 10% FBS, 100 U/mL penicillin, and 100 μg/mL streptomycin in a humidified atmosphere containing 5% CO2. The culture was split twice a week when the cells had reached the concentration of 5–7×10^5 cells/mL. The cell count and viability were determined following staining with erythrosin B. The cells were counted manually using a hemocytometer and a light microscope.
One hundred microliters of the stabilized THP-1 cells (5th-20th passage) were split into 96-well plates to afford the concentration of 5×10^5 cells/mL, and differentiation into macrophages was induced by the addition of phorbol myristate acetate (PMA), as described previously. THP1-XBlue™-MD2-CD14 cells were used without any differentiation due to their stabile expression of MD2 and CD14 co-receptors.
THP1-XBlue™-MD2-CD14 cells were transferred into a serum-free medium at the concentration of 5×10^5 cells/mL. The floated cells were pretreated with the tested compounds (i.e. complexes 1–7, [Cu(Law)2(H2O)2]·0.5H2O, and Hlaw, respectively) and stimulated either by LPS (1 μg/mL), or by the addition of human recombinant TNF-α (10 ng/mL; Invivogen), or by Pam3CSK4 (100 ng/mL; Invivogen), a synthetic triacylated lipoprotein and selective Toll-like receptor 1/2 agonist. After 24 h of the incubation, 20 μL of the cultivation medium was mixed with 180 μL of Quanti-Blue medium and incubated according to the manufacturer’s instructions at 37°C for 2 h. The activity of released alkaline phosphatase, directly proportional to the NF-κB activity, was quantified from the difference in absorbance at 655 nm against the untreated control.

[2] = system: carrageenan-induced hind paw edema; experiment: Carrageenan-induced hind paw edema, plethysmometry; format: in vivo, rat; settings: rats, i.p., dose corresponding to 40 mmol Cu/kg (ca. 20 mg/kg), 30 min before carrageenan, up to 6 h
Protocol: Wistar—SPF (6–8 weeks male) rats were obtained from the AnLab, Ltd., Prague. The animals were kept in plexiglass cages at the constant temperature of 22±1°C, and relative humidity of 55±5% for at least 1 week before the experiment. They were given food and water ad libitum. After a one-week adaptation period, male Wistar-SPF rats (200–250 g) were randomly assigned into ten groups (n = 7) of animals in the study. The first, control group, received 10% DMF (v/v in water, intraperitoneal; i.p.). The next eight groups were pretreated with complexes 1–7 and [Cu(Law)2(H2O)2]·0.5H2O (at the dose corresponding to […] Cu/kg; ca. 20 mg/kg) and involved into the carrageenan-treatment. The last group was treated with a non-steroidal anti-inflammatory drug Indomethacin (5 mg/kg), which served as a positive control (Indomethacin + carrageenan).
The carrageenan-induced hind paw edema model was used for the determination of the anti-inflammatory activity. […] The paw volume was measured immediately after the carrageenan injection and during the next 6 h after the administration of the edematogenic agent using a plethysmometer (model 7159, Ugo Basile, Varese, Italy). The degree of swelling induced was evaluated as the percentage of change in the volume of the right hind paw after the carrageenan treatment from the volume of the right hind paw before the carrageenan treatment.

[3] = In vitro cytotoxicity, WST-1 assay, 24 h; format: cell-based; settings: human, THP-1 monocytic leukemia cells
Protocol: The final concentration of the solvent in the culture medium was 0.1% (v/v). The cells were incubated at 37°C with 5% CO2 for 24 h. After the incubation, the cytotoxicity was determined by the Cell Proliferation Reagent WST-1 kit according to the manufacturer´s instructions.

TNF-α = TNF-α secretion in LPS-stimulated THP-1 macrophages (ELISA); format: cell-based, human; settings: 100 nM, 1 h pretreatment, LPS 1 μg/mL, 24 h
Protocol: One hundred microliters of the stabilized THP-1 cells (5th-20th passage) were split into 96-well plates to afford the concentration of 5×10^5 cells/mL, and differentiation into macrophages was induced by the addition of phorbol myristate acetate (PMA), as described previously. […] Whereas the complexes were dissolved in PBS, lawsone was dissolved in DMSO. With respect to the results of cytotoxicity assay, the concentration of 100 nM should not affect the viability of the target cells in any way. For comparative purposes, a conventional drug prednisone was used at the standard dose of 1 μM dissolved in DMSO. Then, the DMSO was added to the rest of the wells. […] Vehicle-treated cells contained a vehicle (0.1% DMSO) only. The TNF-α secretion in the pretreated differentiated THP-1 macrophages was induced by the addition of 1 μg/mL LPS dissolved in sterile water. The basal cytokine expression level was determined in the control cells without the LPS stimulation. LPS triggers an inflammatory response through binding to toll-like receptor 4 (TLR-4) and subsequently activates the NF-κB signaling pathway. The cultivation medium was aspirated 24 h after the LPS addition and the cell residue was removed by centrifugation. The concentration of the secreted TNF-α was determined using the Human TNF-α Instant ELISA kit.

[4] = 100 nM, vs vehicle-treated cells

Molecule: O.O=C1C=C([O-])C(=O)c2ccccc21.O=C1C=C([O-])C(=O)c2ccccc21.[Cu+2].c1ccncc1 [compound 1, [Cu(Law)2(H2O)(py)]]
- PMN infiltration / inflammatory reaction in hind paw tissue ([1]; (ca. 20 mg/kg)): mainly scarce and diffuse
- decrease of NF-κB activity stimulated by LPS (NF-κB; [4]): did not affect
- decrease of NF-κB activation induced by Pam3CSK4 (NF-κB; 100 nM): no noticeable effect
- antiedematous activity (hind paw swelling) [2]: diminish completely the swelling of the hind paw; also recorded: most active

Molecule: O=C1C=C([O-])C(=O)c2ccccc21.O=C1C=C([O-])C(=O)c2ccccc21.[Cu+2].c1c[nH]cn1.c1c[nH]cn1 [compound 2, [Cu(Law)2(Im)2]]
- decrease of NF-κB activity stimulated by LPS (NF-κB; [4]): 10%
- decrease of NF-κB activation induced by Pam3CSK4 (NF-κB; 100 nM): no noticeable effect

Molecule: COc1ccc2c(c1)c(CC(=O)O)c(C)n2C(=O)c1ccc(Cl)cc1 [indomethacin, reference compound]
- PMN infiltration / inflammatory reaction in hind paw tissue ([1]; 5 mg/kg): mainly scarce and diffuse

Molecule: O=C1C=C(O)C(=O)c2ccccc21 [lawsone, 2-hydroxy-1,4-naphthoquinone]
- viability at 24 h, 10 µM [3]: ~80%
- decrease of NF-κB activity stimulated by LPS (NF-κB; [4]): 19–24%
- decrease of NF-κB activity stimulated by TNF-α (NF-κB; 100 nM): 32%
- decrease of TNF-α expression/secretion in LPS-stimulated cells (TNF-α): 28%

Molecule: C[C@]12C=CC(=O)C=C1CC[C@@H]1[C@@H]2C(=O)C[C@@]2(C)[C@H]1CC[C@]2(O)C(=O)CO [prednisone, reference compound]
- decrease of NF-κB activity stimulated by LPS (NF-κB; 1 μM): 26%
- decrease of NF-κB activity stimulated by TNF-α (NF-κB; 1 μM): 37%

Molecule: [Cu(Law)2(3,5diMePz)2]·0.5H2O [compound 7]
- PMN infiltration / inflammatory reaction in hind paw tissue ([1]; (ca. 20 mg/kg)): massive presence of PMN cells
- decrease of NF-κB activity stimulated by LPS (NF-κB; [4]): 19–24%
- antiedematous activity (hind paw swelling) [2]: least active

Molecule: [Cu(Law)2(3-OHpy)2] [compound 6]
- decrease of NF-κB activity stimulated by LPS (NF-κB; [4]): 12%

Molecule: [Cu(Law)2(3-apy)2]·0.5H2O [compound 4]
- decrease of NF-κB activity stimulated by LPS (NF-κB; [4]): 19–24%

Molecule: [Cu(Law)2(H2O)(2-apy)]·0.5H2O [compound 3]
- decrease of NF-κB activity stimulated by LPS (NF-κB; [4]): 19–24%
- decrease of NF-κB activation induced by Pam3CSK4 (NF-κB; 100 nM): most efficient
- decrease of TNF-α expression/secretion in LPS-stimulated cells (TNF-α): greatest potential
